From ChEMBL document CHEMBL3045734, “Synthesis of Mannich Bases of 2, 6-Disubstituted 2H-pyran-3(6H)-ones and their Miticidal Activity” (1994)

What was measured:
Type in all cases: functional
Tetranychus urticae [1] = assay: Miticidal activity against Tetranychus urticae (two-spotted spider mite) in kidney beans assessed as mortality under greenhouse at 100 ppm at 25 +/- 2 degC measured after 48 hr of spray
Tetranychus urticae [2] = assay: Miticidal activity against Tetranychus urticae (two-spotted spider mite) in kidney beans assessed as mortality under greenhouse at 300 ppm at 25 +/- 2 degC measured after 48 hr of spray
Tetranychus urticae [3] = assay: Miticidal activity against Tetranychus urticae (two-spotted spider mite) in kidney beans assessed as mortality under greenhouse at 600 ppm at 25 +/- 2 degC measured after 48 hr of spray
Tetranychus urticae [4] = assay: Miticidal activity against Tetranychus urticae (two-spotted spider mite) in kidney beans assessed as mortality under greenhouse at 50 ppm at 25 +/- 2 degC measured after 48 hr of spray
Panonychus citri [5] = assay: Miticidal activity against Panonychus citri in satsuma mandr assessed as next generation adult mites under greenhouse at 300 ppm at 25 +/- 2 degC measured after 14 days of spray relative to control
Tetranychus kanzawai [6] = assay: Miticidal activity against Tetranychus kanzawai in kidney beans assessed as next generation adult mites under greenhouse at 300 ppm at 25 +/- 2 degC measured after 14 days of spray relative to control
Tetranychus urticae [7] = assay: Miticidal activity against Tetranychus urticae (two-spotted spider mite) in kidney beans assessed as next generation adult mites under greenhouse at 300 ppm at 25 +/- 2 degC measured after 14 days of spray relative to control
Panonychus citri [8] = assay: Miticidal activity against Panonychus citri in satsuma mandarin assessed as mortality under greenhouse at 50 ppm at 25 +/- 2 degC measured after 48 hr of spray
Panonychus citri [9] = assay: Miticidal activity against Panonychus citri in satsuma mandarin assessed as mortality under greenhouse at 100 ppm at 25 +/- 2 degC measured after 48 hr of spray
Panonychus citri [10] = assay: Miticidal activity against Panonychus citri in satsuma mandarin assessed as mortality under greenhouse at 300 ppm at 25 +/- 2 degC measured after 48 hr of spray
Tetranychus kanzawai [11] = assay: Miticidal activity against Tetranychus kanzawai in kidney beans assessed as mortality under greenhouse at 50 ppm at 25 +/- 2 degC measured after 48 hr of spray
Tetranychus kanzawai [12] = assay: Miticidal activity against Tetranychus kanzawai in kidney beans assessed as mortality under greenhouse at 100 ppm at 25 +/- 2 degC measured after 48 hr of spray
Tetranychus kanzawai [13] = assay: Miticidal activity against Tetranychus kanzawai in kidney beans assessed as mortality under greenhouse at 300 ppm at 25 +/- 2 degC measured after 48 hr of spray

Structure (SMILES)	mortality at 100 ppm (Tetranychus urticae [1])	mortality at 300 ppm (Tetranychus urticae [2])	mortality at 600 ppm (Tetranychus urticae [3])	other results
COC1C=C(CN2CCCCC2)C(=O)C(C2CCCCC2)O1 (centres undefined)	68%	100%	100%	
CCCCCCC1OC(OC)C=C(CN2CCCCC2)C1=O (centres undefined)	77%	100%	100%	mortality at 50 ppm (Tetranychus urticae [4]): 40%
CCCCCC1OC(OC)C=C(CN2CCCCC2)C1=O (centres undefined)	20%	95%	100%	
CCCC1OC(OC)C=C(CN2CCCCC2)C1=O (centres undefined)		20%	90%	
CCCCCCC1OC(OC(C)C)C=C(CN2CCCCC2)C1=O (centres undefined)	100%	100%		Activity (Panonychus citri [5]): 91%; Activity (Tetranychus kanzawai [6]): 90%; Activity (Tetranychus urticae [7]): 93%; mortality at 50 ppm (Panonychus citri [8]): 88%; mortality at 100 ppm (Panonychus citri [9]): 100%; mortality at 300 ppm (Panonychus citri [10]): 100%; mortality at 50 ppm (Tetranychus kanzawai [11]): 93%; mortality at 100 ppm (Tetranychus kanzawai [12]): 100%; mortality at 300 ppm (Tetranychus kanzawai [13]): 100%; mortality at 50 ppm (Tetranychus urticae [4]): 90%
CCCCCCC1OC(OC)C=C(CN2CCCCC2C)C1=O (centres undefined)		60%	90%	
CCCCCCC1OC(OC2CCCCC2)C=C(CN2CCCCC2)C1=O (centres undefined)	82%	100%		mortality at 50 ppm (Tetranychus urticae [4]): 40%
CCCCCCC1OC(OC)C=C(CN(CCCC)CCCC)C1=O (centres undefined)			75%	
CCCCCCC1OC(Oc2ccccc2)C=C(CN2CCCCC2)C1=O (centres undefined)	20%	60%		
CCCCN(CCCC)CC1=CC(OC)OC(C2CCCCC2)C1=O (centres undefined)			70%	
CCN(CC)CC1=CC(OC)OC(C2CCCCC2)C1=O (centres undefined)			60%	
CCCCCCC1OC(OCCCC)C=C(CN2CCCCC2)C1=O (centres undefined)	75%	100%		mortality at 50 ppm (Tetranychus urticae [4]): 40%
CCCCCCC1OC(OC)C=C(CN(CC)CC)C1=O (centres undefined)			60%	
COC1C=C(CN2CCOCC2)C(=O)C(C2CCCCC2)O1 (centres undefined)		65%	90%	
CCCCCCC1OC(OC)C=C(CN2CCCC(C)C2)C1=O (centres undefined)	55%	85%	100%	
CCCCC1OC(OC)C=C(CN2CCCCC2)C1=O (centres undefined)	10%	87%	90%	
COC1C=C(CN2CCCCC2C)C(=O)C(C2CCCCC2)O1 (centres undefined)		55%	80%	

Structure (SMILES)	mortality at 100 ppm (Tetranychus urticae [1])	mortality at 300 ppm (Tetranychus urticae [2])	mortality at 600 ppm (Tetranychus urticae [3])	other results
CCCCCCCCC1OC(OC)C=C(CN2CCCCC2)C1=O (centres undefined)	50%	90%	100%	
COC1C=C(CN2CCCCC2)C(=O)C(c2ccccc2)O1 (centres undefined)			30%	
CCCCCCCCCCCCC1OC(OC)C=C(CN2CCCCC2)C1=O (centres undefined)		65%	90%	
CCCCCCC1OC(OCC(C)C)C=C(CN2CCCCC2)C1=O (centres undefined)	92%	100%		mortality at 50 ppm (Tetranychus urticae [4]): 75%
COC1C=C(CN2CCC(C)CC2)C(=O)C(C2CCCCC2)O1 (centres undefined)	60%	85%	100%	
CCCCCCCCCCC1OC(OC)C=C(CN2CCCCC2)C1=O (centres undefined)	20%	70%	95%	
CCCCCCC1OC(OC(C)(C)C)C=C(CN2CCCCC2)C1=O (centres undefined)	75%	95%		mortality at 50 ppm (Tetranychus urticae [4]): 50%
CCCCCCOC1C=C(CN2CCCCC2)C(=O)C(CCCCCC)O1 (centres undefined)	70%	85%		mortality at 50 ppm (Tetranychus urticae [4]): 45%
CCCCCCC1OC(OCc2ccccc2)C=C(CN2CCCCC2)C1=O (centres undefined)	40%	55%		
COC1C=C(CN2CCCC2)C(=O)C(C2CCCCC2)O1 (centres undefined)			68%	
CCCCCCC1OC(OCCC)C=C(CN2CCCCC2)C1=O (centres undefined)	100%	100%		mortality at 50 ppm (Tetranychus urticae [4]): 70%
CCCCCCC1OC(OC)C=C(CN2CCOCC2)C1=O (centres undefined)		65%	90%	
CCCCCCC1OC(OC)C=C(CN2CCCC2)C1=O (centres undefined)			70%	
COC1C=C(CN2CCCCC2)C(=O)CO1 (centres undefined)		10%	70%	
CCCCCCC1OC(OCC)C=C(CN2CCCCC2)C1=O (centres undefined)	70%	100%		mortality at 50 ppm (Tetranychus urticae [4]): 40%
COC1C=C(CN2CCCC(C)C2)C(=O)C(C2CCCCC2)O1 (centres undefined)	65%	83%	100%	
CCCCCCC1OC(OC)C=C(CN2CCC(C)CC2)C1=O (centres undefined)	70%	95%	100%	
